Assay results taken from patent US20100204508A1, “DENDRITIC COMPOUND AND USE THEREOF” (Industrial Technology Research Institute, priority 2004, published 2010).

Assays:
[1] = B0 = 1.0T; cited from earlier work
[2] = magnetizing relaxation rate via NMR (R1, R2); format: physicochemical; conditions: B0 = 0.47 T, vertical relative relaxation

CNC[C@H](O)[C@@H](O)[C@H](O)[C@H](O)CO.CNC[C@H](O)[C@@H](O)[C@H](O)[C@H](O)CO.O=C([O-])CN(CCN(CC(=O)[O-])CC(=O)O)CCN(CC(=O)[O-])CC(=O)O.[Gd+3] [Magnevist ™]
R1 (Literature) [1]: R1 = 3.4 | R1(20 MHz) [2]: 6.14
